According to patent US4480118A, “Carboxylic acid ester and an insecticidal and/or acaricidal composition containing the same” (priority 1981, dated 1984):
In brackets after ≈: the same amount, converted by molar mass.

Assays:
Assay type in all cases: in vivo
housefly [1] = test: Insecticidal activity against housefly (Filter paper bait and contact method); settings: Musca domestica; 500 ppm, 48 hours, adult female houseflies; read-out: Mortality
Procedure: Each 20 parts of the present compounds No. 1 to No. 29, 10 parts of an emulsifier (Sorpol 3005X; trademark for Toho Chemical Co.) and 70 parts of xylene are thoroughly mixed by stirring to obtain an emulsifiable concentrate of each compound.
A piece of filter paper, 5.5 cm in diameter, was laid on the bottom of a polyethylene cup of the identical inner diameter. An emulsifiable concentrate prepared in the same manner as in Preparation Example 2 was diluted with water. To the filter paper, was added dropwise 0.7 ml of the diluted sample (500 ppm in concentration). Sucrose (30 mg) was placed on the filter paper to serve as bait. Ten adult female houseflies were released into the cup, closed with a cover, and observed for the number of dead and alive insects after 48 hours to calculate the mortality (2 replications).

housefly [2] = test: Insecticidal activity against housefly (Topical application method); settings: dorsal thorax, adult female, 24 hours
Procedure: The present compounds and the reference compounds were diluted with acetone to prescribed concentrations. Each 0.5 μl of the diluted samples was applied topically with a microsyringe onto the dorsal thorax of an adult female housefly. The flies were fed and observed for the number of dead and alive insects after 24 hours. LD50 (median lethal dose) was calculated from the mortalities at each dosage by probit method.

tobacco cutworm = test: Insecticidal activity against tobacco cutworm; settings: 24 h, read-out: LC50 (median lethal concentration), treated artificial diet, third-instar larvae, 24 hours
Procedure: An artificial diet (15 g) for tobacco cutworm was wet with 2 ml of the prescribed aqueous dilution of an emulsifiable concentrate obtained in Preparation Example 2 or of that obtained from reference compounds. The diet thus treated was placed in a polyethylene cup of 11 cm in diameter.

housefly [3] = test: Activity of oil spray against adult housefly (glass chamber); settings: oil spray 0.5 ml, 10 minutes exposure; for mortality, House fly: observed on the following day, 1440 min
Procedure: (§1) 0.1 Part of each compound Nos. 10, 12, 15, 17, 18, 19, 22, 23 and 29 of this invention is dissolved in deodorized kerosene and made up to 100 parts with kerosene to obtain an oil spray.
(§2) Ten adult houseflies and ten adult female northern house mosquitos were released in a glass chamber, 70×70×70 cm in size. An oil spray preparation (0.5 ml) obtained in Preparation Example 1 was sprayed inside the chamber and the insects were exposed to the descending mist for 10 minutes, during which time the number of knocked-down insects was counted at predetermined time intervals to determine the 50% knockdown time (KT50). On the following day, the dead and alive insects were observed.

northern house mosquito [4] = test: Activity of oil spray against adult female northern house mosquito (glass chamber); settings: for mortality, Northern house mosquito: in vivo, 24 h; for KT50 (50% knockdown time), Northern house mosquito: oil spray 0.5 ml, 10 minutes exposure
Procedure: as §1, §2

northern house mosquito [5] = test: Mosquito coil knockdown of adult female northern house mosquitos
Procedure: Each 0.6 g of the present compounds Nos. 10, 16 and 27 is dissolved in 20 ml of methanol and uniformly mixed with 99.4 g of a carrier for mosquito coils (a mixture of Tabu powder, pyrethrum marc and wood powder in a proportion of 3:5:1) by thorough stirring. After evaporation of methanol and addition of 150 ml of water, the mixture is thoroughly kneaded, then molded, and dried to obtain a mosquito coil.
About 50 adult female northern house mosquitos were released into a glass chamber, 70×70×70 cm, and a battery-operated small fan (diameter of rotation of the vane: 13 cm) disposed in the cabinet was operated. A mosquito coil obtained in Preparation Example 6 was ignited at both ends and placed at the center of bottom of the chamber. After 20 minutes, the number of knocked down insects was counted.

SMILES	mortality at 500 ppm (housefly [1])	LD50 (median lethal dose) (housefly [2])	LC50 (tobacco cutworm)	KT50 (50% knockdown time), House fly (housefly [3])	mortality, House fly (housefly [3])	mortality, Northern house mosquito (northern house mosquito [4])	KT50 (50% knockdown time), Northern house mosquito (northern house mosquito [4])	Percent knocked down insects after 20 minutes (northern house mosquito [5])
CC1(C)[C@@H](C(=O)OC(C#N)c2cccc(Oc3ccccc3)c2)[C@@]12Cc1ccccc1O2 (relative stereo) [Compound 18]	100%	0.0061 μg/female	1.8 µg/mL (≈ 4.23 µM)	600 s	10%	100%	456 s	–
C#CCC1=C(C)C(OC(=O)C2C(C)(C)C23Cc2ccccc2C3)CC1=O (stereo not drawn) [Compound 10]	100%	–	–	210 s	30%	100%	320 s	94%
C=CCC1=C(C)C(OC(=O)C2C(C)(C)C23Cc2ccccc2C3)CC1=O (stereo not drawn) [Compound 15]	100%	–	–	250 s	20%	95%	300 s	90%
C#CC(OC(=O)C1C(C)(C)C12Cc1ccc(F)cc1C2)C(C)=CCC (stereo not drawn) [Compound 27]	100%	–	–	–	–	–	–	10%
